Consider five compounds from patent US10065990B2, “Cyclic peptide compound, and preparation method, pharmaceutical composition and use thereof” (HANGZHOU GUANYU BIO-MEDICAL CO., LTD, priority 2013, dated 2018).

Molecules are shown by their SMILES. Where two headings read alike, the source gives them in different places.

One may read the GI50 as the concentration that inhibits growth by half.

Assay [1] deals with U937 (human leukemia cells). Briefly: MTT cancer cell growth inhibition. The format is cell-based. The note with it: Homo sapiens, U-937, 72 h, MTT, 72 hours incubation, read-out: GI50 U93. The method, boiled down:
(§1)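 Cells grown in DMEM or RPMI 1640 with 10% FBS were seeded at 1500/well and left overnight at 37° C., 5% CO2. Compounds at final 10^−5 to 10^−10 M were added in triplicate for 72 h. MTT was then added for 4 h, formazan dissolved in DMSO, and absorbance read at 570 nm to derive GI50.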

Assay [2] relates to SGC-7901 (human gastric cancer cells). Kind of assay: MTT cancer cell growth inhibition. The note with it: Homo sapiens, SGC-7901, 72 h, MTT, 72 hours incubation, SGC-7901 cells; read-out: GI50 SGC-7901. The class given is cell-based. In short, it runs like this: as §1
In assay [3] the test system is MCF-7 (human breast cancer cells). Briefly: MTT cancer cell growth inhibition. The class given is cell-based. The note with it: Homo sapiens, MCF7, 72 h, 72 hours incubation, read-out: GI50 MCF. The method, boiled down: as §1
Assay [4] concerns A549 (human lung cancer cells). Briefly: MTT cancer cell growth inhibition. The format is cell-based. The following applies: Homo sapiens, A549, 72 h, MTT, 72 hours incubation, read-out: GI50 A54. The method, boiled down: as §1
For assay [5], the system named is KBM-5 (human chronic myelogenous leukemia). Briefly: MTT cancer cell growth inhibition. The class given is cell-based. The following applies: Homo sapiens, KBM5, 72 h, MTT, 72 hours incubation, KBM-5 cells; read-out: GI50 KBM-5. In short, it runs like this: as §1
The test system of assay [6] is PANC-1 (Pac-1, human pancreatic cancer cells). Briefly: MTT cancer cell growth inhibition. The class given is cell-based. The following applies: Homo sapiens, PANC-1, 72 h, MTT, 72 hours incubation, read-out: GI50 PAN. In short, it runs like this:
as §1

The test system of assay [7] is Huh-7 (human hepatoma cells). Kind of assay: MTT cancer cell growth inhibition. The class given is cell-based. The following applies: Homo sapiens, Huh-7, 72 h, MTT, 72 hours incubation, Huh-7 cells; read-out: GI50 Huh-7. In short, it runs like this: as §1
The subject of assay [8] is H1975 (non-small cell lung adenocarcinoma). Briefly: MTT cancer cell growth inhibition. The class given is cell-based. The following applies: Homo sapiens, NCI-H1975, 72 h, MTT, 72 hours incubation, H1975 cells; read-out: GI50 H1975. The method, boiled down:
as §1

In assay [9] the test system is KBM5-T315I (human chronic myelogenous leukemia). Kind of assay: MTT cancer cell growth inhibition. The format is cell-based. The following applies: Homo sapiens, 72 h, MTT, 72 hours incubation, KBM5-T315I cells; read-out: GI50 KBM5-T315I. The method, boiled down: as §1
Assay [10] relates to MDA-MB-231 (breast cancer cells). Kind of assay: MTT cancer cell growth inhibition. The format is cell-based. The note with it: Homo sapiens, MDA-MB-231, 72 h, read-out: GI50 MDA-MB-231, MTT, 72 hours incubation, MDA-MB-231 cells. In short, it runs like this:
as §1

Assay [11] concerns MOLT-4 (human acute lymphoblastic leukemia cells). Briefly: MTT cancer cell growth inhibition. The note with it: Homo sapiens, MOLT-4, 72 h, MTT, 72 hours incubation, read-out: GI50 Mol. The class given is cell-based. The method, boiled down:
as §1

The subject of assay [12] is K562 (human leukemia cells). Briefly: MTT cancer cell growth inhibition. The class given is cell-based. The note with it: Homo sapiens, K562, 72 h, MTT, 72 hours incubation, K562 cells; read-out: GI50 K562. In short, it runs like this: as §1
In assay [13] the test system is N-87 (human gastric cancer cells). Kind of assay: MTT cancer cell growth inhibition. The format is cell-based. The following applies: Homo sapiens, 72 h, MTT, 72 hours incubation, N-87 cells; read-out: GI50 N-87. The method, boiled down:
as §1

The test system of assay [14] is Hela (human cervical cancer cells). Briefly: MTT cancer cell growth inhibition. The class given is cell-based. The following applies: Homo sapiens, HeLa, 72 h, MTT, 72 hours incubation, read-out: GI50 Hela. The method, boiled down:
as §1

The subject of assay [15] is DU145 (human prostate cancer cells). Briefly: MTT cancer cell growth inhibition. The class given is cell-based. The note with it: Homo sapiens, DU-145, 72 h, MTT, 72 hours incubation, read-out: GI50 Du1. In short, it runs like this:
as §1

The subject of assay [16] is HCC827 (human non-small cell lung cancer cells). Kind of assay: MTT cancer cell growth inhibition. The following applies: Homo sapiens, HCC827, 72 h, MTT, 72 hours incubation, HCC827 cells; read-out: GI50 HCC827. The class given is cell-based. The method, boiled down: as §1
In assay [17] the test system is Bel-7402 (human hepatoma cells). Kind of assay: MTT cancer cell growth inhibition. The class given is cell-based. The following applies: Homo sapiens, Bel-7402, 72 h, MTT, 72 hours incubation, Bel-7402 cells; read-out: GI50 Bel-7402. In short, it runs like this:
as §1

The subject of assay [18] is HT1080 (human fibrosarcoma cells). Briefly: MTT cancer cell growth inhibition. The class given is cell-based. The note with it: Homo sapiens, HT-1080, 72 h, MTT, 72 hours incubation, read-out: GI50 HT1. In short, it runs like this:
as §1

The subject of assay [19] is BGC-823 (human gastric cancer cells). Kind of assay: MTT cancer cell growth inhibition. The note with it: Homo sapiens, BGC-823, 72 h, MTT, 72 hours incubation, read-out: GI50 BG. The format is cell-based. The method, boiled down:
as §1

Assay [20] relates to lncap (prostate cancer cells). Briefly: MTT cancer cell growth inhibition. The class given is cell-based. The following applies: Homo sapiens, LNCaP, 72 h, MTT, 72 hours incubation, read-out: GI50 lnca. The method, boiled down: as §1
The target in another assay is T1, HDAC7 (Homo sapiens, UniProt Q8WUI4).
T1 sequence (Q8WUI4 1-952): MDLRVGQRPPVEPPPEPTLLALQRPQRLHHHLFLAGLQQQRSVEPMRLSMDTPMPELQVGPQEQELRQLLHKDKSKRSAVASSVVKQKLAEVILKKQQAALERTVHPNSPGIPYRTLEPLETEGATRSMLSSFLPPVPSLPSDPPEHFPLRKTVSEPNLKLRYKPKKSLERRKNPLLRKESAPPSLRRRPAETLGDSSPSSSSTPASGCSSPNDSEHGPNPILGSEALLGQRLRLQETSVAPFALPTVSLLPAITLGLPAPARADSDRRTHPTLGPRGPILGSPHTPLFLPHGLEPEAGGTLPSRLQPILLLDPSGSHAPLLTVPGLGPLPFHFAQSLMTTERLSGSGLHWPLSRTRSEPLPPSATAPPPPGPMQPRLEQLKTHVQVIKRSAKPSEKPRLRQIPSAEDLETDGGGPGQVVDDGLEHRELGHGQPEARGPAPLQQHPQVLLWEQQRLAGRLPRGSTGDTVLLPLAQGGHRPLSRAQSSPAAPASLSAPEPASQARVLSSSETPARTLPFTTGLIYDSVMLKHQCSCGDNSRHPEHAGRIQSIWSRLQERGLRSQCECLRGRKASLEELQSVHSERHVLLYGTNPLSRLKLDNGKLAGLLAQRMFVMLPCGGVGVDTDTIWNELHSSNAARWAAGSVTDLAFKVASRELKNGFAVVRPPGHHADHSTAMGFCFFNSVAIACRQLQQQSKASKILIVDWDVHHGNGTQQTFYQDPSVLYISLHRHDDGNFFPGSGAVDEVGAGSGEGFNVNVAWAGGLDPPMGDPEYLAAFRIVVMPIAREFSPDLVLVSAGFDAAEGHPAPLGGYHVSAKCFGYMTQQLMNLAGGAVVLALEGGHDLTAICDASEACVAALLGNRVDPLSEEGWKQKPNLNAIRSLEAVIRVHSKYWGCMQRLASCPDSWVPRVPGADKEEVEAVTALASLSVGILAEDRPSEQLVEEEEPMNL
Kind of assay: HDAC biochemical activity measurement (fluorescent substrate deacetylation).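 Also: fluorogenic deacetylation assay using acetyl-lysine substrate at 20 µM, enzyme and compound incubated 30 min at 37 °C, then developer added, fluorescence read at 360/460 nm.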 The following applies: HDAC7; 37° C. 30 minutes.

On to `C/C=C1\NC(=O)c2nc(ccc2F)CNC(=O)C[C@@H](/C=C/CCS)OC(=O)[C@H](CCCCN)NC1=O` [Compound 116], for which the GI50 in [1] turned out to be 20 nM; in assay [2], 21 nM; in assay [3] it was 60 nM; in assay [4] it was 60 nM; in [5], 18 nM; in assay [6] it was 40 nM. Besides, the GI50 in assay [7] was 52 nM; in [8], 93 nM; in [9] it was 36 nM; in assay [10] it was 46 nM; in assay [11], 30 nM; in assay [12] it was 16 nM. The GI50 in assay [13] was determined as 43 nM; in [14] it was 40 nM; in assay [15], 20 nM; in assay [16], 21 nM; in [17], 28 nM; in assay [18] it was 50 nM. In addition, the GI50 in assay [19] is 50 nM; in assay [20], 30 nM. At HDAC7, the “IC50 HDAC7” value is “no activity”.

In the case of `C/C=C1\NC(=O)c2cccc(n2)CNC(=O)C[C@@H](/C=C/CCS)OC(=O)[C@H](C)NC1=O` [Example 29], the 50% growth inhibitory concentration (GI50) in assay [1] was 450 nM; in assay [2], 29 nM; in [3], 1210 nM; in [4], 270 nM; in assay [5] it was 43 nM; in assay [6] it was 80 nM. Also, the GI50 in assay [7] was 77 nM; in [8], 63 nM; in [9] it was 37 nM; in [10] it was 87 nM; in [11], 70 nM; in assay [12] it was 34 nM. Besides, the GI50 in assay [13] turned out to be 33 nM; in assay [14], 910 nM; in assay [15], 70 nM; in assay [16], 29 nM; in assay [17] it was 91 nM; in assay [18] it was 60 nM. Further, the GI50 stood at 90 nM in assay [19] and 50 nM in assay [20]. Further, the “IC50 HDAC7” value against HDAC7 is “no activity”.

In the case of `C/C=C1\NC(=O)c2cc(SC)cc(n2)CNC(=O)C[C@@H](/C=C/CCSC(=O)CCCCCCC)OC(=O)[C@H](C)NC1=O` [Compound 181], the GI50 is 20 nM in [1] (U937 cells); 28 nM in assay [2]; 70 nM in assay [3] (MCF-7 cells); 50 nM in assay [4] (A549 cells); 15 nM in assay [5]; 40 nM in [6] (PANC-1 cells). Moreover, the GI50 in [7] was found to be 37 nM; in assay [8] it was 35 nM; in assay [9] it was 33 nM; in assay [10], 18 nM; in assay [11] (MOLT-4 cells), 80 nM; in assay [12], 23 nM. The GI50 amounted to 36 nM in assay [13]; 70 nM in assay [14] (Hela cells); 60 nM in [15] (DU145 cells); 41 nM in [16]; 38 nM in [17]; 60 nM in [18] (HT1080 cells). Besides, the GI50 in assay [19] (BGC-823 cells) came out at 30 nM; in assay [20] (lncap cells) it was 80 nM. Besides, the “IC50 HDAC7” value against HDAC7 was “no activity”.

As to `C/C=C1\NC(=O)c2nc(ccc2F)CNC(=O)C[C@@H](/C=C/CCS)OC(=O)[C@H](CC)NC1=O` [Compound 109], the GI50 was 40 nM in assay [1]; 42 nM in assay [2]; 20 nM in assay [3]; 50 nM in assay [4]; 82 nM in assay [5]; 70 nM in [6]. Further, the GI50 is 46 nM in assay [7]; 31 nM in [8]; 71 nM in assay [9]; 126 nM in assay [10]; 30 nM in [11]; 28 nM in assay [12]. In addition, the GI50 in assay [13] amounted to 61 nM; in assay [14], 70 nM; in assay [15] it was 40 nM; in assay [16], 51 nM; in [17] it was 56 nM; in [18] it was 70 nM. Besides, the GI50 was determined as 20 nM in [19] and 30 nM in [20]. Besides, at HDAC7, the “IC50 HDAC7” value is listed as “no activity”.

On to `C/C=C1\NC(=O)c2ccc(SCCC)c(n2)CNC(=O)C[C@@H](/C=C/CCSC(=O)CCCCCCC)OC(=O)[C@H](CC)NC1=O` [Compound 176], for which the GI50 in assay [1] (U937 cells) worked out at 10 nM; in [2], 31 nM; in assay [3] (MCF-7 cells), 10 nM; in assay [4] (A549 cells), 80 nM; in assay [5], 34 nM; in assay [6] (PANC-1 cells), 60 nM. The GI50 was 31 nM in assay [7]; 31 nM in assay [8]; 38 nM in assay [9]; 32 nM in assay [10]; 50 nM in assay [11] (MOLT-4 cells); 21 nM in assay [12]. The GI50 in assay [13] is 28 nM; in assay [14] (Hela cells), 50 nM; in assay [15] (DU145 cells) it was 50 nM; in assay [16] it was 38 nM; in [17], 31 nM; in assay [18] (HT1080 cells), 30 nM. Besides, the GI50 in [19] (BGC-823 cells) came out at 20 nM; in assay [20] (lncap cells), 30 nM. For the same compound, the “IC50 HDAC7” value against HDAC7 is “no activity”.
